US10301332B2, “Method of selectively releasing nitric oxide depending on change in pH using calcium phosphate” (INSTITUTE FOR BASIC SCIENCE, priority 2015, dated 2019)

Test: Release of nitric oxide depending on pH (Sievers NOA nitric oxide detector)
Format: physicochemical
Conditions: 1 mg in 40 ml DPBS, pH 7.4 (FIG. 8)
Protocol: FIGS. 8 to 10 illustrate results obtained using a nitric oxide detector (Sievers NOA, GE analytical instruments, USA) in order to confirm a nitric oxide release behavior of the synthesized CaP—NO depending on the change in pH. FIG. 8 illustrates a result of observing the nitric oxide release behavior after adding 1 mg of AEATS to 40 ml of Dulbecco's Phosphate-Buffered Saline (DPBS, pH 7.4). […] FIG. 9 illustrates a result of confirming a nitric oxide release behavior of CaP—NO depending on a change in pH. […] When the pH was increased to 7.4 again, nitric oxide was not released, and as a result of observing the nitric oxide release behavior while repeatedly changing the pH, it was confirmed that when the pH was 5, nitric oxide was released.

CO[Si](CCCNCCN)(OC)OC [AEATS, N-(2-aminoethyl)-3-aminopropyl trimethoxysilane]
nitric oxide release behavior: a large amount of nitric oxide was released
